The text below walks through data of patent US7176199B2, “Aryl-substituted alicyclic compound and medical composition comprising the same” (Dainippon Pharmaceutical Co., Ltd., priority 2001, dated 2007).

The structures appear in SMILES notation. Where two headings read alike, the source gives them in different places. Bounds are passed on as bounds.

One assay has as its target GPIIb/IIIa (Homo sapiens, UniProt P05106+P08514). The settings on record: read-out: GPIIb/IIIa inhibitory activity IC50 value, cited from earlier work.
In assay [1] the target is T1, αvβ3 integrin (Homo sapiens, UniProt P05106+P06756). To be noted: reported in WO 99/52872; read-out: αvβ3 integrin inhibitory activity IC50 value; cited from earlier work.
T1 sequence (P06756 31-889 limits assumed): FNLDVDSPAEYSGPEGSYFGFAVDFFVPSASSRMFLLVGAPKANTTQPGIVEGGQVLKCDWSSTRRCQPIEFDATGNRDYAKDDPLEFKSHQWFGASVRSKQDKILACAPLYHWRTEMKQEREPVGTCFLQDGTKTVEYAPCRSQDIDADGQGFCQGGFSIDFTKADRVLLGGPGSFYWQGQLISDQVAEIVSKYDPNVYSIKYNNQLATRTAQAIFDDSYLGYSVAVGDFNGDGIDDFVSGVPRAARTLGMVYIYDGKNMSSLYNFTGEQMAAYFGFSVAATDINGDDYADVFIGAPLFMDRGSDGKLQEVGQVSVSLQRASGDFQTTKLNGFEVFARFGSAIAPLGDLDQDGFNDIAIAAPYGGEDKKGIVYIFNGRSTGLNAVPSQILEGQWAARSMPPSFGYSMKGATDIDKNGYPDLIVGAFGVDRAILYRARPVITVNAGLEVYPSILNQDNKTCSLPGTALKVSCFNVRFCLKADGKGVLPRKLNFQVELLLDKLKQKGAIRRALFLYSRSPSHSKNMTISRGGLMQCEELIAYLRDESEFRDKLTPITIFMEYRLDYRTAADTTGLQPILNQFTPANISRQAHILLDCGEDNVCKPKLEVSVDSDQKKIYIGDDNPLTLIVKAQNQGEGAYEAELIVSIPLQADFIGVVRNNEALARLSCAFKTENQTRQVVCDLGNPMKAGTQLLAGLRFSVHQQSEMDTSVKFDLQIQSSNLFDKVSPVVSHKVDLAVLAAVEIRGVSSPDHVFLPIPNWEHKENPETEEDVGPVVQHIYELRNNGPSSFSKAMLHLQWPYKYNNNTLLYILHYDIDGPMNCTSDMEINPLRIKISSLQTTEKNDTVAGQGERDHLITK
T1 sequence (P06756 891-1048 partner limits assumed): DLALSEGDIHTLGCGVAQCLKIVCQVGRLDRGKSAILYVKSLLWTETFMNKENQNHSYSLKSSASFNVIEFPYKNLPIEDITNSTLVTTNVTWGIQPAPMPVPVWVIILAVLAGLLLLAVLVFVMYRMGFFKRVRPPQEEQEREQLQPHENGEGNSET
T1 sequence (P05106 27-788): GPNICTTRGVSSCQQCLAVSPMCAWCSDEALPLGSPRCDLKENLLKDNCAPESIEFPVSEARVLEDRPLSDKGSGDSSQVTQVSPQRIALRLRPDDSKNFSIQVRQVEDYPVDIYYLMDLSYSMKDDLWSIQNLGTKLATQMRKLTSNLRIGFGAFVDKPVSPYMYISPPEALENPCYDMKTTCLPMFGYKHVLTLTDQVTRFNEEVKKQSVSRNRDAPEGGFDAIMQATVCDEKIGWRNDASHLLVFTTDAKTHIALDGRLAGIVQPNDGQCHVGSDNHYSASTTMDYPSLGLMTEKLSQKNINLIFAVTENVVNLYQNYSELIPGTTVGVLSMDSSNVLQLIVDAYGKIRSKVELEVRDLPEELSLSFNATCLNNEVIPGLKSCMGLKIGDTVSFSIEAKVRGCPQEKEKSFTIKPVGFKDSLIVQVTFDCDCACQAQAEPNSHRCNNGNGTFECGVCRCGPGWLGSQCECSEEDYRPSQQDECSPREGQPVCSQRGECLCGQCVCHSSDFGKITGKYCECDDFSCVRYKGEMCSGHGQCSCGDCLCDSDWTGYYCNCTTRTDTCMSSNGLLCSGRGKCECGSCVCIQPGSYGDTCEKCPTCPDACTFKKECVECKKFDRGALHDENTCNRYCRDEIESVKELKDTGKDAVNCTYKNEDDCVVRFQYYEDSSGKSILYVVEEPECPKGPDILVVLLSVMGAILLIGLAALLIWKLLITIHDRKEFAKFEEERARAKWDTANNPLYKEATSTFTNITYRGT
Assay [2] deals with T1, αvβ3 integrin. Nature of the assay: Assay for the inhibition of αvβ3 integrin binding (vitronectin as ligand). Also noted: purchased Chemicon International, Inc., USA. The settings on record: inhibition of specific binding of biotinylated human vitronectin to immobilized αvβ3 integrin.
The target in a further assay is T2, αIIbβ3 integrin (Homo sapiens, UniProt P05106+P08514).
T2 construct: from tissue; host or cells: human platelets (Triton X-100 lysate)
T2 sequence (P08514 32-887 limits assumed): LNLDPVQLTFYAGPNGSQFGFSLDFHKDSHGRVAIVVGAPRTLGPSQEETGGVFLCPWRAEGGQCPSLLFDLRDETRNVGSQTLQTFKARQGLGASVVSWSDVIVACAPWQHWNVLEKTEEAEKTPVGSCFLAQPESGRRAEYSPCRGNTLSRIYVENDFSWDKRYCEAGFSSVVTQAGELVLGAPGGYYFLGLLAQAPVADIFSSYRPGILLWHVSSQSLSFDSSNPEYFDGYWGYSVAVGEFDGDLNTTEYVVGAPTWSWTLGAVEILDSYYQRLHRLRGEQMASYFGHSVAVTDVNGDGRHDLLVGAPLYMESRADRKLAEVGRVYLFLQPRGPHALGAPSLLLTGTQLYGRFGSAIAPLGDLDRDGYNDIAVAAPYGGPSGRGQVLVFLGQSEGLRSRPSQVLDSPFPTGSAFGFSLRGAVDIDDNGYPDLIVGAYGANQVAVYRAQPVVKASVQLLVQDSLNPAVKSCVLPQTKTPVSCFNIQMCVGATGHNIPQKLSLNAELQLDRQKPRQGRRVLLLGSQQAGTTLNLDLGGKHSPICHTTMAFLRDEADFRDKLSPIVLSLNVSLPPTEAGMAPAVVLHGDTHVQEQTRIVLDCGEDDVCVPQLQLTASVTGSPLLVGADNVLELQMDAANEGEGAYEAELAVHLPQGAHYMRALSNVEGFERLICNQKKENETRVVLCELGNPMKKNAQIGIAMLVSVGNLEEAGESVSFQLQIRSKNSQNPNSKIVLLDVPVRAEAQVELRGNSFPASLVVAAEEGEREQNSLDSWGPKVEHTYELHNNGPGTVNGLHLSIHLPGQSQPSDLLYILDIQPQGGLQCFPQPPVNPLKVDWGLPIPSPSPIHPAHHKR
T2 sequence (P08514 891-1039 partner limits assumed): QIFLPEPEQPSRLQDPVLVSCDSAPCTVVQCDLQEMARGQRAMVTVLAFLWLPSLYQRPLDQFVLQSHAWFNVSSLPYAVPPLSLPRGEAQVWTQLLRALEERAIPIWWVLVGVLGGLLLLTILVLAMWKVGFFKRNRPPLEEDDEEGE
T2 sequence (P05106 27-788): as the sequence (P05106 27-788) above
Nature of the assay: Assay for the inhibition of αIIbβ3 integrin binding (fibrinogen as ligand, integrin captured from platelet lysate). To be noted: inhibition of specific binding of biotinylated fibrinogen to αIIbβ3 integrin from human platelet lysate.

Chain of GPIIb/IIIa (P08514 32-887 limits assumed): as the sequence (P08514 32-887 limits assumed) above
Chain of GPIIb/IIIa (P08514 891-1039 partner limits assumed): as the sequence (P08514 891-1039 partner limits assumed) above
Chain of GPIIb/IIIa (P05106 27-788): as the sequence (P05106 27-788) above

Turning to `O=C(NC[C@H](NS(=O)(=O)c1ccccc1)C(=O)O)c1ccc(N2CCN(C3=NCCCN3)CC2)c(Cl)c1` [Example A-1, (2S)-2-benzenesulfonylamino-3-[3-chloro-4-[4-(1,4,5,6-tetrahydropyrimidin-2-yl)piperazin-1-yl]benzoylamino]propanoic acid], the IC50 on GPIIb/IIIa (reported in WO 99/38849) is not above 0.2 nM.

On to `O=C(NC[C@H](NS(=O)(=O)c1ccccc1)C(=O)O)c1ccc(N2CCC(NC3=NCCCN3)CC2)c(F)c1` [Example A-2, (2S)-2-benzenesulfonylamino-3-[3-fluoro-4-[[4-(1,4,5,6-tetrahydropyrimidin-2-yl)amino]-piperidin-1-yl]benzoylamino]propanoic acid], for which the IC50 on αvβ3 integrin [1] and at GPIIb/IIIa (reported in WO 99/52872) was not above 1 nM each time.

`CCCCCCCCCCOC(=O)N[C@@H](CNC(=O)C1CCN(c2cccc(NC3=NCCCN3)c2)CC1)C(=O)O` [Ex. 90, (2S)-2-decyloxycarbonylamino-3-[[1-[3-(1,4,5,6-tetrahydropyrimidin-2-yl)aminophenyl]piperidin-4-yl]carbonylamino]propanoic acid]: the figures for the IC50 at αvβ3 integrin [2] and on αIIbβ3 integrin were 0.23 nM and 260 nM, respectively.

For the compound `O=C(N[C@@H](CCC(=O)N1CCC(c2cccc(NC3=NCCCN3)c2)CC1)C(=O)O)OCc1ccccc1` [Ex. 148, (2S)-2-benzyloxycarbonylamino-5-[4-[3-(1,4,5,6-tetrahydropyrimidin-2-yl)aminophenyl]piperidin-1-yl]-5-oxopentanoic acid], the values for the IC50 at αvβ3 integrin [2] and on αIIbβ3 integrin were 0.17 nM and 420 nM, respectively.

Regarding `O=C(N[C@@H](CNC(=O)C1CCN(c2cccc(NC3=NCCN3)c2)CC1)C(=O)O)OCc1ccccc1` [Ex. 9, (2S)-2-benzyloxycarbonylamino-3-[[1-[3-(2-imidazolin-2-yl)aminophenyl]piperidin-4-yl]carbonylamino]propanoic acid], the figures for the IC50 on αvβ3 integrin [2] and on αIIbβ3 integrin were 0.059 nM and 54 nM, respectively.

As for `CC1(C)CN=C(Nc2cccc(N3CCC(C(=O)NC[C@H](NC(=O)OCc4ccccc4)C(=O)O)CC3)c2)NC1` [Ex. 11, (2S)-2-benzyloxycarbonylamino-3-[[1-[3-(5,5-dimethyl-1,4,5,6-tetrahydropyrimidin-2-yl)aminophenyl]piperidin-4-yl]carbonylamino]-propanoic acid], the figures for the IC50 at αvβ3 integrin [2] and on αIIbβ3 integrin were 0.14 nM and 87 nM, respectively.

For `CCCCCCCCCCOC(=O)N[C@@H](CCC(=O)N1CCN(c2cccc(NC3=NCC(C)CN3)c2)CC1)C(=O)O` (stereo partly drawn) [Ex. 135], the IC50 was 0.74 nM at αvβ3 integrin [2] and more than 1000 nM at αIIbβ3 integrin.

As for `O=C(N[C@@H](CNC(=O)C1CCC(c2cccc(NC3=NCCCN3)c2)CC1)C(=O)O)OCc1ccccc1` (single isomer, unassigned) [Ex. 151A], the values for the IC50 at αvβ3 integrin [2] and on αIIbβ3 integrin were 0.074 nM and 37 nM, respectively.
